In ChEMBL document CHEMBL1155571, “Pelorol from the tropical marine sponge Dactylospongia elegans” (J Nat Prod, 2000):
In brackets after ≈: the same amount, converted by molar mass.

Legend:
Plasmodium falciparum [1] = experiment: Antiplasmodial activity against Plasmodium falciparum K1; assay type: functional, organism-based
Plasmodium falciparum [2] = experiment: Antiplasmodial activity against Plasmodium falciparum NF54; assay type: functional, organism-based
[3] = system: Trypanosoma brucei rhodesiense; experiment: Antitrypanosomal activity against Trypanosoma rhodesiense; assay type: functional, organism-based
tyrosine kinase = experiment: Inhibition of tyrosine kinase at 1 ug/uL

COC(=O)c1cc(O)c(O)c2c1[C@]1(C)CC[C@H]3C(C)(C)CCC[C@]3(C)[C@H]1C2 [PELOROL]
IC50 (Plasmodium falciparum [1]): 0.786 µg/mL (≈ 2.11 µM)
IC50 (Plasmodium falciparum [2]): 1.91 µg/mL (≈ 5.13 µM)
IC50 [3]: 17.4 µg/mL (≈ 46.7 µM)

C[C@@H]1CC[C@H]2[C@@H](C)C(=O)O[C@@H]3O[C@@]4(C)CC[C@@H]1[C@]32OO4 [ARTEMISININ]
IC50 (Plasmodium falciparum [1]): 0.0014 µg/mL (≈ 0.00496 µM)
IC50 (Plasmodium falciparum [2]): 0.0025 µg/mL (≈ 0.00885 µM)

C=C1CCC[C@H]2[C@](C)(CC3=C(O)C(=O)C=C(OC)C3=O)[C@@H](C)CC[C@]12C [ILIMAQUINONE]
IC50 (Plasmodium falciparum [1]): 1.74 µg/mL (≈ 4.86 µM)
inhibition (tyrosine kinase): 87%
IC50 (Plasmodium falciparum [2]): 0.949 µg/mL (≈ 2.65 µM)
IC50 [3]: 7.7 µg/mL (≈ 21.5 µM)
